In PMC11562385 (RSC Chemical Biology, 2024):
Peptide text beside a SMILES is read from it.

Assays:
[1] = Variable-temperature CD melting curves (CD-melts at 228±2 nm and 202±2 nm), individual and global two-state fits; assay type: physicochemical
How it was run: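 Far-UV CD melts (0 to 95 °C) at 15-120 µM peptide in 15 mM phosphate buffer, concentration set by Trp/Tyr absorbance at 280 nm; CD-exciton intensity taken as %-folding probe. Melting curves fitted individually and globally to a two-state model.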

[2] = biological target: T1, cell surface PD1 on CD3+/CD8+ cells of h-PBMCs (Homo sapiens, UniProt Q15116); assay: In cellulo PD1 blockade on h-PBMCs by flow cytometry; assay type: cell-based; details: h-PBMC cultures, 30 h, n = 3
T1 construct: endogenous in cells; host or cells: healthy human PBMCs (CD45+, CD3+/CD8+ gated)
Text: Then, an ex vivo immune cell culture system using h-PBMCs and exhausted PBMCs from a melanoma patient (e-PBMCs) was used to determine the efficacy of selected ADAPTin peptides on T-effector cells (Fig. 6).[91,92] T-cell exhaustion typically leads to a reduction in cytokine release, cytotoxic activity, as well as slower T-cell proliferation.

[3] = xlsx sheet of the peptide, individual fit of CD-melt

T1 sequence (Q15116 25-288): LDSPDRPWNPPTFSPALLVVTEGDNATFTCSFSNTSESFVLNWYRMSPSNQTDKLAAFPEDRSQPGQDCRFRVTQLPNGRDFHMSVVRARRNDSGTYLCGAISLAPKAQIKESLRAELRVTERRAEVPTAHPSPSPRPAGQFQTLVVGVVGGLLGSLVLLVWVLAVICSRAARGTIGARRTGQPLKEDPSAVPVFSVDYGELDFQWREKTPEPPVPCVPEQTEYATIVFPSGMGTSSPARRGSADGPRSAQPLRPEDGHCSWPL

## CSCC[C@H](NC(=O)[C@H](CC(=O)O)NC(=O)[C@H](Cc1ccccc1)NC(=O)[C@H](CCCNC(=N)N)NC(=O)[C@H](Cc1ccc(O)cc1)NC(=O)[C@H](CC(=O)O)NC(=O)[C@H](CCCNC(=N)N)NC(=O)[C@H](CCCNC(=N)N)NC(=O)[C@H](C)NC(=O)[C@@H](NC(=O)[C@H](Cc1c[nH]c2ccccc12)NC(=O)[C@@H](N)CCCNC(=N)N)C(C)C)C(=O)NCC(=O)N[C@@H](Cc1ccccc1)C(=O)N[C@@H](CC(=O)O)C(=O)N[C@@H](Cc1ccc(O)cc1)C(=O)N[C@@H](Cc1c[nH]c2ccccc12)C(=O)N[C@H](C(=O)N[C@@H](Cc1c[nH]c2ccccc12)C(=O)N[C@@H](CCC(=O)O)C(=O)O)C(C)C [2c] (H-RWVARRDYRFDMGFDYWVWE-OH)
[1]; CD-melt at 228±2 nm, individual two-state Gibbs-Helmholtz fit (Origin 9.0), 0-95 °C, phosphate buffer 15 mM pH 6.5 ± MeOH
  ΔGF0: -1.26 ± 0.01 kcal/mol
[1]; Table S5, individual fit, 291 K
  Hairpin %-fold 291K: 93 ± 1%
[1]; Table S5, individual fit, 310 K
  Hairpin %-fold 310K: 77 ± 1%
[1]; as E16
  -TΔSF0: 12.4 ± 0.2 kcal/mol
  ΔCpF0: -29 ± 7 cal.deg-1.mol-1
  ΔHF0: -13.6 ± 0.2 kcal/mol
[1]; folded fraction (χF) at 25 °C from CD-melts, (R) regular / (B) bulged fold, phosphate buffer 15 mM pH 6.5, up to 20% MeOH
  VT-CD %-fold: 93% (B)
[1]; global fit (shared maximum molar ellipticity), 228 nm
  Tm 228 nm Glob.: 48.0 oC
[1]; global fit, 202 nm
  Tm 202 nm Glob.: 67.5 oC
[1]; global fit, 202 nm, 291 K
  χF (291 K) 202 nm Glob.: 97%
[1]; global fit, 228 nm, 291 K
  χF (291 K) 228 nm Glob.: 63%
[1]; individual fit, 202 nm, 291 K
  χF (291 K) 202 nm Indiv.: 73%
[1]; individual fit, 228 nm, 291 K
  χF (291 K) 228 nm Indiv.: 56%
[1]; individual fit, exciton band 228 nm
  Tm 228 nm Indiv.: 36.7 oC
[1]; individual fit, β-bulge band 202 nm
  Tm 202 nm Indiv.: 62.2 oC
[1]; melting temperature from CD-melts, phosphate buffer 15 mM pH 6.5, up to 20% MeOH
  VT-CD Tm (°C): 54 °C
[1]; [3]
  DHm, fitted value from OriginPro: -14.4955 kcal/mol
  Tm, fitted value from OriginPro: 327.29 K
[2]
  PD1 blockade on CD3+/CD8+ T-effector cells: < 20%
